Assay results published in US20090143279A1 (priority 2007, published 2009).
Read-outs that look alike come from different tables or passages of the source.

Experiments:
[1] = system: reactive oxygen species; assay type: cell-based, mouse
[2] = system: mitochondrial membrane potential; assay type: cell-based, mouse
[3] = system: cytochrome c; assay type: cell-based, mouse
[4] = system: mtOXPHOS transcripts; assay type: cell-based, mouse
[5] = system: C2C12 myotubes
[6] = system: OXPHOS gene expression; assay type: cell-based, mouse
[7] = system: nuOXPHOS transcripts; assay type: cell-based, mouse
[8] = system: cellular dehydrogenase activity
[9] = composite Z-score vs DMSO, Conc 20 μM
[10] = normalized composite Z-score vs mock-treated (DMSO) wells, Conc 20 μM
[11] = composite Z-score vs mock-treated (DMSO) wells, Conc 20 μM
[12] = Conc 20 μM, normalized score vs mock-treated (DMSO) wells
[13] = Table 6, C2C12 myotubes, 48 h, composite Z-score
[14] = composite Z-score vs DMSO, Conc 4.42 μM

Structure (SMILES): CC(=O)c1cc(CC=C(C)C)c(O)c(CC=C(C)C)c1 [3,5-diprenyl-4-hydroxyacetophenone]
- ROS [1, 9]: 1.014
- ΔΨm [2, 9]: −0.022
- cyt c [3, 9]: −0.220
- mitoOX [4, 9]: 0.538
- Viability [5, 9]: −0.293
- GE-HTS [6, 9]: 0.149
- nucOX [7, 9]: −0.036
- MTT [8, 9]: −0.582

Structure (SMILES): COc1ccc2c(=O)c(OC)c(-c3ccccc3)oc2c1 [3,7-dimethoxyflavone]
- ROS [1, 10]: 0.652
- ΔΨm [2, 10]: 0.817
- cyt c [3, 10]: 0.982
- mitoOX [4, 10]: −0.434
- Viability [5, 10]: −0.730
- GE-HTS [6, 10]: −0.945
- nucOX [7, 10]: −1.084
- MTT [8, 10]: −1.089

Structure (SMILES): CC1CC(O)C2OC1CC1C(CC1(C)C)C2C (stereo not shown) [3,7-epoxycaryophyllan-6-ol]
- ROS [1, 10]: 0.255
- ΔΨm [2, 10]: −0.461
- cyt c [3, 10]: 0.604
- mitoOX [4, 10]: −0.407
- Viability [5, 10]: −0.644
- GE-HTS [6, 10]: −1.018
- nucOX [7, 10]: −1.203
- MTT [8, 10]: −1.302

Structure (SMILES): COc1c(-c2ccccc2)oc2c(OC)cccc2c1=O [3,8-dimethoxyflavone]
- ROS [1, 10]: 1.553
- ΔΨm [2, 10]: −0.103
- cyt c [3, 10]: 0.361
- mitoOX [4, 10]: 0.492
- Viability [5, 10]: 0.930
- GE-HTS [6, 10]: 0.399
- nucOX [7, 10]: 0.315
- MTT [8, 10]: −0.252

Structure (SMILES): COC(=O)C[C@H]1C(C)(C)[C@@H](O)[C@@H]2CC3=C4CC(O)O[C@@H](c5ccoc5)[C@]4(C)CCC3[C@@]1(C)C2=O (stereo partly drawn) [3,16-dideoxymexicanolide-3beta-diol]
- ROS [1, 10]: 0.587
- ΔΨm [2, 10]: 0.154
- cyt c [3, 10]: −0.130
- mitoOX [4, 10]: −0.202
- Viability [5, 10]: −0.384
- GE-HTS [6, 10]: 0.150
- nucOX [7, 10]: 0.282
- MTT [8, 10]: −1.091

Structure (SMILES): CC(=O)OC1CC[C@@]2(C)C(CC[C@H]3[C@@H]4CC=C(C(C)=O)[C@@]4(C)C(=O)C[C@@H]32)C1 (stereo partly shown) [3-acetoxypregn-16-en-12,20-dione]
- ROS [1, 11]: 0.201
- ΔΨm [2, 11]: −0.216
- cyt c [3, 11]: −0.050
- mitoOX [4, 11]: −0.958
- Viability [5, 11]: −0.873
- GE-HTS [6, 11]: −0.885
- nucOX [7, 11]: −0.775
- MTT [8, 11]: −0.553

Structure (SMILES): CC(=O)O[C@@H]1CC2C(C)(C)[C@H](O)C=C[C@]2(C)C2CC[C@]3(C)C(=CC(=O)O[C@H]3c3ccoc3)[C@@]21C (stereo partly drawn) [3-alpha-hydroxydeoxygedinin]
- ROS (composite Z-score) [1, 12]: 0.531
- ΔΨm (composite Z-score) [2, 12]: 1.760
- cyt c (composite Z-score) [3, 12]: −0.321
- mitoOX (composite Z-score) [4, 12]: −0.939
- Viability (composite Z-score) [5, 12]: 0.156
- GE-HTS (composite Z-score) [6, 12]: −1.171
- nucOX (composite Z-score) [7, 12]: −1.202
- MTT (composite Z-score) [8, 12]: −0.319

Structure (SMILES): C=C1C(N)CC2CC1C2(C)C (stereo not drawn) [3-amino-beta-pinene]
- ROS [1, 10]: 0.421
- ΔΨm [2, 10]: −0.519
- cyt c [3, 10]: 0.460
- mitoOX [4, 10]: −1.138
- Viability [5, 10]: −0.108
- GE-HTS [6, 10]: −1.376
- nucOX [7, 10]: −1.341
- MTT [8, 10]: −0.906

Structure (SMILES): CC(=O)C(=Cc1ccccc1)CC(=O)O [3-benzylidenyl-levulinic acid]
- ROS (composite Z-score) [1]: 0.382
- ΔΨm (composite Z-score) [2]: −0.170
- cyt c (composite Z-score) [3]: −0.165
- mitoOX (composite Z-score) [4]: −0.647
- Viability (composite Z-score) [5]: −0.431
- GE-HTS (composite Z-score) [6]: −0.639
- nucOX (composite Z-score) [7]: −0.553
- MTT (composite Z-score) [8]: −0.665

Structure (SMILES): CC(=O)O[C@H]1C[C@@H](O)C(C)(C)[C@@H]2C[C@@H](OC(C)=O)[C@]3(C)[C@H](CC[C@@]4(C)[C@@H](c5ccoc5)OC(=O)[C@H]5O[C@@]534)[C@@]12C [3-deacetylkhivorin]
- ROS [1, 10]: 0.619
- ΔΨm [2, 10]: 0.274
- cyt c [3, 10]: −0.600
- mitoOX [4, 10]: −0.272
- Viability [5, 10]: 0.398
- GE-HTS [6, 10]: −0.661
- nucOX [7, 10]: −0.823
- MTT [8, 10]: −0.317

Structure (SMILES): COc1ccc2c(c1)OCC(Cc1ccc(OC)c(OC)c1)C2O (stereo not shown) [3-deshydroxysappanol trimethyl ether, reference compound]
- ROS Zscore [1, 13]: 1.3852
- ROS [1, 10]: 1.385
- ΔΨm [2, 10]: 0.033
- cyt c [3, 10]: −0.948
- mitoOX [4, 10]: 0.224
- Viability [5, 10]: 0.416
- GEHTS_Zscore [6, 13]: 1.970
- GE-HTS [6, 10]: 0.465
- nucOX [7, 10]: 0.557
- MTT [8, 10]: −0.416

Structure (SMILES): Cc1cc(O)c(C)c(O)c1C(=O)O [3-methylorsellinic acid]
- ROS [1, 9]: 0.860
- ΔΨm [2, 9]: −0.030
- cyt c [3, 9]: 0.321
- mitoOX [4, 9]: −0.108
- Viability [5, 9]: −0.494
- GE-HTS [6, 9]: −1.005
- nucOX [7, 9]: −1.318
- MTT [8, 9]: −1.253

Structure (SMILES): Cn1c(=O)[nH]c(=O)c2[nH]cnc21 [3-methylxanthine]
- ROS [1, 9]: 0.472
- ΔΨm [2, 9]: −0.149
- cyt c [3, 9]: 0.692
- mitoOX [4, 9]: −0.856
- Viability [5, 9]: 0.036
- GE-HTS [6, 9]: −1.241
- nucOX [7, 9]: −1.286
- MTT [8, 9]: −0.859

Structure (SMILES): CC1CCC23CCC4(C)C5(C)CCC6C(C)(C)C(=O)CCC6(C)C5CCC4(OC2=O)C3C1C (stereo not shown) [3-oxoursan (28-13)olide]
- ROS [1, 10]: 1.010
- ΔΨm [2, 10]: −0.332
- cyt c [3, 10]: 0.991
- mitoOX [4, 10]: −1.205
- Viability [5, 10]: 0.638
- GE-HTS [6, 10]: −1.322
- nucOX [7, 10]: −1.228
- MTT [8, 10]: −1.871

Structure (SMILES): CC1C(=NO)CC2CC1C2(C)C (stereo not shown) [3-pinanone oxime]
- ROS [1, 10]: −0.152
- ΔΨm [2, 10]: −0.415
- cyt c [3, 10]: 0.014
- mitoOX [4, 10]: 0.386
- Viability [5, 10]: −0.344
- GE-HTS [6, 10]: 0.141
- nucOX [7, 10]: 0.031
- MTT [8, 10]: −0.210

Structure (SMILES): CC(=O)c1ccc(O)c(CC=C(C)C)c1 [3-prenyl-4-hydroxyacetophenone]
- ROS [1, 9]: 2.418
- ΔΨm [2, 9]: −0.010
- cyt c [3, 9]: 0.220
- mitoOX [4, 9]: 0.804
- Viability [5, 9]: −0.696
- GE-HTS [6, 9]: 0.607
- nucOX [7, 9]: 0.477
- MTT [8, 9]: −1.066

Structure (SMILES): CC(=O)O[C@@H]1CC[C@@]2(C)C(C[C@@H](OC(C)=O)[C@@]3(C)C4=CC(=O)O[C@@H](c5ccoc5)[C@]4(C)CCC23)C1(C)C (stereo partly drawn) [3alpha-acetoxydihydrodeoxygedunin]
- ROS [1, 11]: 2.371
- ΔΨm [2, 11]: 1.157
- cyt c [3, 11]: 0.179
- mitoOX [4, 11]: −0.584
- Viability [5, 11]: 0.781
- GE-HTS [6, 11]: −0.987
- nucOX [7, 11]: −1.123
- MTT [8, 11]: −1.653

Structure (SMILES): CC(=O)O[C@@H]1CC2C(C)(C)[C@H](O)CC[C@]2(C)C2CC[C@@]3(C)[C@H](c4ccoc4)OC(=O)C4OC43[C@@]21C (stereo partly drawn) [3alpha-hydroxydeoxodihydrogedunin]
- ROS [1, 10]: 1.207
- ΔΨm [2, 10]: −0.061
- cyt c [3, 10]: 1.091
- mitoOX [4, 10]: −0.857
- Viability [5, 10]: 0.065
- GE-HTS [6, 10]: −0.892
- nucOX [7, 10]: −0.832
- MTT [8, 10]: −1.072

Structure (SMILES): CC(=O)O[C@H]1CC[C@]2(C)[C@H]3CC[C@@]4(C)[C@H](c5ccoc5)OC(=O)[C@H]5O[C@]54[C@]3(C)[C@H](OC(C)=O)C[C@H]2C1(C)C [3beta-acetoxydeoxodihydrogedunin]
- ROS [1, 11]: 0.055
- ΔΨm [2, 11]: 0.254
- cyt c [3, 11]: 0.759
- mitoOX [4, 11]: −0.694
- Viability [5, 11]: 0.311
- GE-HTS [6, 11]: −1.016
- nucOX [7, 11]: −1.055
- MTT [8, 11]: −0.528

Structure (SMILES): CC(=O)O[C@@H]1CC2C(C)(CC[C@H](O)C2(C)C)C2CC[C@]3(C)C(=CC(=O)O[C@H]3c3ccoc3)C21C (stereo partly drawn) [3beta-hydroxydeoxodihydrodeoxygedunin]
- ROS (composite Z-score) [1, 12]: 1.488
- ΔΨm (composite Z-score) [2, 12]: 1.048
- cyt c (composite Z-score) [3, 12]: 0.142
- mitoOX (composite Z-score) [4, 12]: −0.359
- Viability (composite Z-score) [5, 12]: −1.397
- GE-HTS (composite Z-score) [6, 12]: −0.747
- nucOX (composite Z-score) [7, 12]: −0.849
- MTT (composite Z-score) [8, 12]: −0.656

Structure (SMILES): CC(=O)OC1CC2C(C)(C)[C@@H](O)CC[C@]2(C)C2CC[C@]3(C)[C@H](c4ccoc4)OC(=O)[C@H]4O[C@]43[C@]12C (stereo partly drawn) [3beta-hydroxydeoxodihydrogedunin]
- ROS [1, 11]: 0.170
- ΔΨm [2, 11]: 0.674
- cyt c [3, 11]: 0.591
- mitoOX [4, 11]: −0.302
- Viability [5, 11]: −0.364
- GE-HTS [6, 11]: −0.585
- nucOX [7, 11]: −0.648
- MTT [8, 11]: −0.540

Structure (SMILES): C=CC(C1=CC(=O)C(OC)=CC1=O)c1ccc(OC)cc1 (stereo not shown) [4,4′-dimethoxydalbergione]
- ROS [1, 11]: −0.802
- ΔΨm [2, 11]: −0.993
- cyt c [3, 11]: −1.432
- mitoOX [4, 11]: −0.975
- Viability [5, 11]: −0.207
- GE-HTS [6, 11]: −0.842
- nucOX [7, 11]: −0.677
- MTT [8, 11]: −2.648

Structure (SMILES): COc1ccc(-c2cc(=O)c3ccc(OC)cc3o2)cc1 [4,7-dimethoxyflavone]
- ROS [1, 10]: 1.067
- ΔΨm [2, 10]: −0.795
- cyt c [3, 10]: 0.031
- mitoOX [4, 10]: 0.539
- Viability [5, 10]: −0.067
- GE-HTS [6, 10]: 1.306
- nucOX [7, 10]: 1.526
- MTT [8, 10]: −0.472

Structure (SMILES): Cc1c(N)c(=O)n(-c2ccccc2)n1C [4-aminoantipyrine]
- ROS [1, 14]: 0.564
- ΔΨm [2, 14]: −4.045
- cyt c [3, 14]: 0.087
- mitoOX [4, 14]: −0.450
- Viability [5, 14]: 0.530
- GE-HTS [6, 14]: −0.182
- nucOX [7, 14]: −0.041
- MTT [8, 14]: −1.470

Structure (SMILES): NCCc1ccc(S(=O)(=O)F)cc1 [4-aminoethylbenzenesulfonyl fluoride]
- ROS [1, 9]: 1.081
- ΔΨm [2, 9]: −0.356
- cyt c [3, 9]: −0.485
- mitoOX [4, 9]: 0.018
- Viability [5, 9]: −0.304
- GE-HTS [6, 9]: −0.016
- nucOX [7, 9]: −0.045
- MTT [8, 9]: −1.406
